In US11453666B2, “Autotaxin inhibitory compounds” (Cancer Research Technology Limited, priority 2015, dated 2022):

molecular target: human recombinant ATX (Homo sapiens, UniProt Q13822); assay: Autotaxin (ATX) activity Quanta Red assay; assay type: biochemical; settings: Table 2: additional compounds tested for ATX activity (Quanta Red Assay); read-out: Activity
Experimental: The reaction was stopped after 2 hours with a 20 μL addition of Quanta Red Stop solution (1:20 dilution in distilled water). The above-described mixture with DMSO alone was used as a positive control whereas that with DMSO alone without ATX was taken as a negative control.
Fluorescence was determined in a BMG Labtech Pherastar plus plate reader ([…]). Data were analysed using Excel fit software. IC50 values were determined in duplicate.

IC50 | Compound
200 nM | COc1ccc(Cn2c(CCC(=O)NCc3cccc(Cl)c3)nc3cccnc32)cc1 [Example 231, N-(3-Chloro-benzyl)-3-[3-(4-methoxy-benzyl)-3H-imidazo[4,5-b]pyridin-2-yl]-propionamide]
193 nM | COc1ccc(CNC(=O)CCc2nc3cccnc3n2Cc2ccc(OC)cc2)cc1 [Example 222, N-(4-Methoxy-benzyl)-3-[3-(4-methoxy-benzyl)-3H-imidazo[4,5-b]pyridin-2-yl]-propionamide]

same assay, conditions: human recombinant ATX 0.8 μg/mL, 2 hours at room temperature, IC50 determined in duplicate; read-out: Activity (ATX activity, Quanta Red assay; IC50)

Compound | IC50
C[C@H](NC(=O)CCc1nc2ccncc2n1Cc1ccc(OC(F)(F)F)cc1)c1ccc(F)cc1 [Example 124, N-[(S)-1-(4-Fluoro-phenyl)-ethyl]-3-[3-(4-trifluoromethoxy-benzyl)-3H-imidazo[4,5-c]pyridin-2-yl]-propionamide] | 8 nM
C[C@H](NC(=O)CCc1nc2cccnc2n1Cc1ccccc1)c1ccccc1 [Example 1, 3-(3-benzyl-3H-imidazo[4,5-b]pyridin-2-yl)-N—((S)-1-phenyl-ethyl)-propionamide] | 68 nM

same assay, conditions: read-out: Activity (ATX activity, Quanta Red assay; IC50)

Compound | IC50
C[C@H](NC(=O)CSc1nc2cccnc2n1Cc1ccc(F)cc1)c1ccc(F)cc1 [Example 146, 2-[3-(4-Fluoro-benzyl)-3H-imidazo[4,5-b]pyridin-2-ylsulfanyl]-N-[(S)-1-(4-fluoro-phenyl)-ethyl]-acetamide] | 3 nM
O=C(CCc1nc2cccnc2n1Cc1ccc(F)c(F)c1)NCc1ccccn1 [Example 75, 3-[3-(3,4-Difluoro-benzyl)-3H-imidazo[4,5-b]pyridin-2-yl]-N-pyridin-2-ylmethyl-propionamide] | 424 nM
C[C@H](NC(=O)NCc1nc2cccnc2n1Cc1ccc(F)c(F)c1)c1ccc(N2CCOCC2)cc1 [Example 163, 1-[3-(3,4-Difluoro-benzyl)-3H-imidazo[4,5-b]pyridin-2-ylmethyl]-3-[(S)-1-(4-morpholin-4-yl-phenyl)-ethyl]-urea] | 309 nM
CN(C)c1ccc(CNC(=O)CCc2nc3cccnc3n2Cc2ccc(OC(F)(F)F)cc2)cc1 [Example 31, N-(4-Dimethylamino-benzyl)-3-[3-(4-trifluoromethoxy-benzyl)-3H-imidazo[4,5-b]pyridin-2-yl]-propionamide] | 6 nM
Cc1cnc2c(c1)nc(CCC(=O)N[C@@H](C)c1ccc(N3CCN[C@@H](C)C3)cc1)n2Cc1ccc(OC(F)(F)F)cc1 [Example 192, N-{(S)-1-[4-((S)-3-Methyl-piperazin-1-yl)-phenyl]-ethyl}-3-[6-methyl-3-(4-trifluoromethoxy-benzyl)-3H-imidazo[4,5-b]pyridin-2-yl]-propionamide] | 56 nM
O=C(CCc1nc2cccnc2n1Cc1ccccc1OC(F)(F)F)NCc1ccc(OC(F)(F)F)cc1 [Example 120, N-(4-Trifluoromethoxy-benzyl)-3-[3-(2-trifluoromethoxy-benzyl)-3H-imidazo[4,5-b]pyridin-2-yl]-propionamide] | 292 nM
O=C(CCc1nc2cccnc2n1Cc1ccc(OC(F)(F)F)cc1)N[C@H]1CCCc2ccccc21 [Example 38, N-(S)-1,2,3,4-Tetrahydro-naphthalen-1-yl-3-[3-(4-trifluoromethoxy-benzyl)-3H-imidazo[4,5-b]pyridin-2-yl]-propionamide] | 9 nM
O=C(CCc1nc2cccnc2n1Cc1ccc(F)cc1)NC(CO)c1ccc(OC(F)(F)F)cc1 (centres unmarked) [Example 33, 3-[3-(4-Fluoro-benzyl)-3H-imidazo[4,5-b]pyridin-2-yl]-N-[2-hydroxy-1-(4-trifluoromethoxy-phenyl)-ethyl]-propionamide] | 6 nM
O=C(CCc1nc2cccnc2n1Cc1ccc(F)c(F)c1)N[C@H]1CCc2ccccc21 [Example 55, 3-[3-(3,4-Difluoro-benzyl)-3H-imidazo[4,5-b]pyridin-2-yl]-N-(S)-indan-1-yl-propionamide] | 40 nM
O=C(CCc1nc2cccnc2n1Cc1ccc(F)cc1)N[C@H](CO)c1ccccc1 [Example 64, 3-[3-(4-Fluoro-benzyl)-3H-imidazo[4,5-b]pyridin-2-yl]-N-((S)-2-hydroxy-1-phenyl-ethyl)-propionamide] | 144 nM
CC(C)(C)OC(=O)N1CCC[C@H](CNC(=O)CCc2nc3cccnc3n2Cc2ccc(OC(F)(F)F)cc2)C1 [Example 66, (R)-3-({3-[3-(4-Trifluoromethoxy-benzyl)-3H-imidazo[4,5-b]pyridin-2-yl]-propionylamino}-methyl)-piperidine-1-carboxylic acid tert-butyl ester] | 162 nM
CCC[C@H](NC(=O)CCc1nc2cccnc2n1Cc1ccc(OC)cc1)c1ccccc1 [Example 99] | 48 nM
C[C@H](NC(=O)CCc1nc2cccnc2n1Cc1ccc(F)c(F)c1)c1ccc(N2CCOCC2)cc1 [Example 45, 3-[3-(3,4-Difluoro-benzyl)-3H-imidazo[4,5-b]pyridin-2-yl]-N-[(S)-1-(4-morpholin-4-yl-phenyl)-ethyl]-propionamide] | 17 nM
COc1ccc(Cn2c(CCC(=O)NCc3ccc4c(ccn4C)c3)nc3cccnc32)cc1 [Example 105, 3-[3-(4-Methoxy-benzyl)-3H-imidazo[4,5-b]pyridin-2-yl]-N-(1-methyl-1H-indol-5-ylmethyl)-propionamide] | 88 nM
COc1ccc(Cn2c(CCC(=O)NCc3ccccc3C)nc3cccnc32)cc1 [Example 106, 3-[3-(4-Methoxy-benzyl)-3H-imidazo[4,5-b]pyridin-2-yl]-N-(2-methyl-benzyl)-propionamide] | 98 nM
O=C(CCc1nc2cccnc2n1Cc1ccc(F)c(F)c1)NC[C@H](O)c1ccccc1 [Example 67, 3-[3-(3,4-Difluoro-benzyl)-3H-imidazo[4,5-b]pyridin-2-yl]-N-((R)-2-hydroxy-2-phenyl-ethyl)-propionamide] | 169 nM

The next lines start with the values.

IC50 | Compound
1480 nM | Cc1cnc(NC(=O)CCc2nc3cccnc3n2Cc2ccc(OC(F)(F)F)cc2)s1 [Example 81, N-(5-Methyl-thiazol-2-yl)-3-[3-(4-trifluoromethoxy-benzyl)-3H-imidazo[4,5-b]pyridin-2-yl]-propionamide]
8 nM | C[C@H](NC(=O)CCc1nc2cccnc2n1Cc1ccc(F)c(F)c1)c1ccc(N2CCN(C)CC2)cc1 [Example 182]
23 nM | Cc1ccc([C@H](C)NC(=O)CCc2nc3ccncc3n2Cc2ccc(F)cc2)cc1 [Example 131, 3-[3-(4-Fluoro-benzyl)-3H-imidazo[4,5-c]pyridin-2-yl]-N-((S)-1-p-tolyl-ethyl)-propionamide]
45 nM | COc1ccc(CNC(=O)CCc2nc3cccnc3n2Cc2cccc(OC(F)(F)F)c2)cc1 [Example 98, N-(4-Methoxy-benzyl)-3-[3-(3-trifluoromethoxy-benzyl)-3H-imidazo[4,5-b]pyridin-2-yl]-propionamide]
6 nM | CC(NC(=O)CCc1nc2cccnc2n1Cc1ccc(OC(F)(F)F)cc1)c1ccncc1 (centres unmarked) [Example 34, N-(1-Pyridin-4-yl-ethyl)-3-[3-(4-trifluoromethoxy-benzyl)-3H-imidazo[4,5-b]pyridin-2-yl]-propionamide]
4 nM | O=C(CCc1nc2cccnc2n1Cc1ccc(OC(F)(F)F)cc1)N[C@H]1CCc2ccccc21 [Example 25, N-(S)-Indan-1-yl-3-[3-(4-trifluoromethoxy-benzyl)-3H-imidazo[4,5-b]pyridin-2-yl]-propionamide]
3 nM | O=C(CCc1nc2ccncc2n1Cc1ccc(OC(F)(F)F)cc1)N[C@@H](CO)c1ccccc1 [Example 123, N-((R)-2-Hydroxy-1-phenyl-ethyl)-3-[3-(4-trifluoromethoxy-benzyl)-3H-imidazo[4,5-c]pyridin-2-yl]-propionamide]
180 nM | COc1ccc(Cn2c(CCC(=O)NCCc3ccc(C)cc3)nc3cccnc32)cc1 [Example 108, 3-[3-(4-Methoxy-benzyl)-3H-imidazo[4,5-b]pyridin-2-yl]-N-(2-p-tolyl-ethyl)-propionamide]
20 nM | C[C@H](NC(=O)CCc1nc2cccnc2n1Cc1ccc(F)c(F)c1)c1ccc(N2CC[C@@H](O)C2)cc1 [Example 190, 3-[3-(3,4-Difluoro-benzyl)-3H-imidazo[4,5-b]pyridin-2-yl]-N-{(S)-1-[4-((R)-3-hydroxy-pyrrolidin-1-yl)-phenyl]-ethyl}-propionamide]
22 nM | COc1ccc(Cn2c(CCC(=O)N[C@@H](C)c3ccc(F)cc3)nc3cccnc32)cc1 [Example 96, N-[(S)-1-(4-Fluoro-phenyl)-ethyl]-3-[3-(4-methoxy-benzyl)-3H-imidazo[4,5-b]pyridin-2-yl]-propionamide]
2 nM | C[C@H](NC(=O)CCc1nc2cccnc2n1Cc1ccc(F)cc1)c1ccc(Br)cc1 [Example 83, N—[(S)-1-(4-bromo-phenyl)-ethyl]-3-[3-(4-fluoro-benzyl)-3H-imidazo[4,5-b]pyridin-2-yl]-propionamide]
5 nM | O=C(CCc1nc2cccnc2n1Cc1ccc(F)cc1)N[C@@H](CO)c1ccccc1 [Example 28, 3-[3-(4-Fluoro-benzyl)-3H-imidazo[4,5-b]pyridin-2-yl]-N-((R)-2-hydroxy-1-phenyl-ethyl)-propionamide]
89 nM | C[C@H](NC(=O)CCc1nc2cccnc2n1Cc1ccc(OC(F)(F)F)cc1)C1CC1 [Example 60, N-((S)-1-Cyclopropyl-ethyl)-3-[3-(4-trifluoromethoxy-benzyl)-3H-imidazo[4,5-b]pyridin-2-yl]-propionamide]
13 nM | C[C@H](NC(=O)CCc1cc2cc(F)cnc2n1Cc1ccc(OC(F)(F)F)cc1)c1ccc(F)cc1 [Example 139, N-[(S)-1-(4-Fluoro-phenyl)-ethyl]-3-[5-fluoro-1-(4-trifluoromethoxy-benzyl)-1H-pyrrolo[2,3-b]pyridin-2-yl]-propionamide]
50 nM | COc1ccc(CNC(=O)CCc2nc3cccnc3n2Cc2ccc(F)c(F)c2)cc1 [Example 100, 3-[3-(3,4-Difluoro-benzyl)-3H-imidazo[4,5-b]pyridin-2-yl]-N-(4-methoxy-benzyl)-propionamide]
